In ChEMBL document CHEMBL2157994, “Synthesis and in vitro and in vivo anticancer activity of novel 3-methyl-5H-isoxazolo[5',4':5,6]pyrido[2,3-b]indoles” (Bioorg Med Chem Lett, 2012):
In brackets after ≈: the same amount, converted by molar mass. Activity calls are given as the source filed them. The rule behind the calls is not given here.

Key:
[1] = system: HeLa; assay: Cytotoxicity against human HeLa cells after 48 hrs by MTT assay; type: functional, cell-based
[2] = system: MCF7; assay: Cytotoxicity against human MCF7 cells after 48 hrs by MTT assay; type: functional, cell-based; settings: MCF7, 48 h
[3] = system: NCI-H460; assay: Cytotoxicity against human NCI-H460 cells after 48 hrs by MTT assay; type: functional, cell-based; settings: NCI-H460, 48 h
[4] = system: Mus musculus; assay: Toxicity in Swiss albino mouse xenografted with mouse EAC cells assessed as RBC level at 10 mg/kg/day, ip administered for 9 days measured on day 14 (reference value: 2.36 +/- 0.13 million/mm3); type: organism-based, Ehrlich; parameters: route intraperitoneal; settings: in vivo, 216 h
[5] = system: Mus musculus; assay: Toxicity in Swiss albino mouse xenografted with mouse EAC cells assessed as WBC level at 5 mg/kg/day, ip administered for 9 days measured on day 14 (reference value: 20.66 +/- 0.81 10^3/mm3); type: organism-based, Ehrlich; parameters: route intraperitoneal; settings: in vivo, 216 h
[6] = system: Mus musculus; assay: Toxicity in Swiss albino mouse xenografted with mouse EAC cells assessed as WBC level at 10 mg/kg/day, ip administered for 9 days measured on day 14 (reference value: 20.66 +/- 0.81 10^3/mm3); type: organism-based, Ehrlich; parameters: route intraperitoneal; settings: in vivo, 216 h
[7] = system: Mus musculus; assay: Hepatoprotective activity in Swiss albino mouse xenografted with mouse EAC cells assessed as SGPT level at 5 mg/kg/day, ip administered for 9 days measured on day 14 (reference value: 57.84 +/- 0.3 IU/L); type: functional, Ehrlich; settings: route intraperitoneal
[8] = system: Mus musculus; assay: Hepatoprotective activity in Swiss albino mouse xenografted with mouse EAC cells assessed as SGPT level at 10 mg/kg/day, ip administered for 9 days measured on day 14 (reference value: 57.84 +/- 0.3 IU/L); type: functional, Ehrlich; settings: route intraperitoneal
[9] = system: Mus musculus; assay: Hepatoprotective activity in Swiss albino mouse xenografted with mouse EAC cells assessed as SGOT level at 5 mg/kg/day, ip administered for 9 days measured on day 14 (reference value: 112 +/- 1.42 IU/L); type: functional, Ehrlich; settings: route intraperitoneal
[10] = system: Mus musculus; assay: Hepatoprotective activity in Swiss albino mouse xenografted with mouse EAC cells assessed as SGOT level at 10 mg/kg/day, ip administered for 9 days measured on day 14 (reference value: 112 +/- 1.42 IU/L); type: functional, Ehrlich; settings: route intraperitoneal
[11] = system: Mus musculus; assay: Hepatoprotective activity in Swiss albino mouse xenografted with mouse EAC cells assessed as total protein level at 5 mg/kg/day, ip administered for 9 days measured on day 14 (reference value: 7.54 +/- 0.14 mg/dL); type: functional, Ehrlich; settings: route intraperitoneal
[12] = system: Mus musculus; assay: Hepatoprotective activity in Swiss albino mouse xenografted with mouse EAC cells assessed as total protein level at 10 mg/kg/day, ip administered for 9 days measured on day 14 (reference value: 7.54 +/- 0.14 mg/dL); type: functional, Ehrlich; settings: route intraperitoneal
[13] = system: Ehrlich; assay: Anticancer activity against mouse EAC cells xenografted in Swiss albino mouse assessed as decrease in ascitic fluid volume relative to tumor control; type: functional
[14] = system: Mus musculus; assay: Toxicity in Swiss albino mouse xenografted with mouse EAC cells assessed as body weight at 5 mg/kg/day, ip administered for 9 days measured on day 14 (reference value: 13.57 +/- 0.8 g); type: organism-based, Ehrlich; parameters: route intraperitoneal; settings: in vivo, 216 h
[15] = system: Mus musculus; assay: Toxicity in Swiss albino mouse xenografted with mouse EAC cells assessed as body weight at 10 mg/kg/day, ip administered for 9 days measured on day 14 (reference value: 13.57 +/- 0.8 g); type: organism-based, Ehrlich; parameters: route intraperitoneal; settings: in vivo, 216 h
[16] = Antitumor activity against mouse EAC cells xenografted in Swiss albino mouse assessed as increase in life span at 5 mg/kg/day, ip administered for 9 days relative to vehicle-treated control; type: functional, Ehrlich; settings: route intraperitoneal
[17] = Antitumor activity against mouse EAC cells xenografted in Swiss albino mouse assessed as increase in life span at 10 mg/kg/day, ip administered for 9 days relative to vehicle-treated control; type: functional, Ehrlich; settings: route intraperitoneal
[18] = Antitumor activity against mouse EAC cells xenografted in Swiss albino mouse assessed as tumor volume at 5 mg/kg/day, ip administered for 9 days measured on day 14 (reference value: 3.53 +/- 0.85 mL); type: functional, Ehrlich; settings: route intraperitoneal
[19] = Antitumor activity against mouse EAC cells xenografted in Swiss albino mouse assessed as tumor volume at 10 mg/kg/day, ip administered for 9 days measured on day 14 (reference value: 3.53 +/- 0.85 mL); type: functional, Ehrlich; settings: route intraperitoneal
[20] = Antitumor activity against mouse EAC cells xenografted in Swiss albino mouse assessed as packed cell volume at 5 mg/kg/day, ip administered for 9 days measured on day 14 (reference value: 2.2 +/- 0.26 mL); type: functional, Ehrlich; settings: route intraperitoneal
[21] = Antitumor activity against mouse EAC cells xenografted in Swiss albino mouse assessed as packed cell volume at 10 mg/kg/day, ip administered for 9 days measured on day 14 (reference value: 2.2 +/- 0.26 mL); type: functional, Ehrlich; settings: route intraperitoneal
[22] = Antitumor activity against mouse EAC cells xenografted in Swiss albino mouse assessed as viable tumor cells at 5 mg/kg/day, ip administered for 9 days measured on day 14 by trypan blue exclusion assay (reference value: 7 +/- 0.43 /ml); type: functional, Ehrlich; settings: route intraperitoneal
[23] = Antitumor activity against mouse EAC cells xenografted in Swiss albino mouse assessed as viable tumor cells at 10 mg/kg/day, ip administered for 9 days measured on day 14 by trypan blue exclusion assay (reference value: 7 +/- 0.43 /ml); type: functional, Ehrlich; settings: route intraperitoneal
[24] = Antitumor activity against mouse EAC cells xenografted in Swiss albino mouse assessed as non-viable tumor cells at 5 mg/kg/day, ip administered for 9 days measured on day 14 by trypan blue exclusion assay (reference value: 1.02 +/- 0.09 /ml); type: functional, Ehrlich; settings: route intraperitoneal
[25] = Antitumor activity against mouse EAC cells xenografted in Swiss albino mouse assessed as non-viable tumor cells at 10 mg/kg/day, ip administered for 9 days measured on day 14 by trypan blue exclusion assay (reference value: 1.02 +/- 0.09 /ml); type: functional, Ehrlich; settings: route intraperitoneal
[26] = system: Mus musculus; assay: Toxicity in Swiss albino mouse xenografted with mouse EAC cells assessed as haemoglobin level at 5 mg/kg/day, ip administered for 9 days measured on day 14 (reference value: 5.54 +/- 0.734 g%); type: organism-based, Ehrlich; parameters: route intraperitoneal; settings: in vivo, 216 h
[27] = system: Mus musculus; assay: Toxicity in Swiss albino mouse xenografted with mouse EAC cells assessed as haemoglobin level at 10 mg/kg/day, ip administered for 9 days measured on day 14 (reference value: 5.54 +/- 0.734 g%); type: organism-based, Ehrlich; parameters: route intraperitoneal; settings: in vivo, 216 h
[28] = system: Mus musculus; assay: Toxicity in Swiss albino mouse xenografted with mouse EAC cells assessed as RBC level at 5 mg/kg/day, ip administered for 9 days measured on day 14 (reference value: 2.36 +/- 0.13 million/mm3); type: organism-based, Ehrlich; parameters: route intraperitoneal; settings: in vivo, 216 h

With `COc1ccc2[nH]c3nc4c(C)noc4cc3c2c1` the IC50 [1] was 48.3 µg/mL (≈ 191 µM), the IC50 [2] was 46.5 µg/mL (≈ 184 µM) and the IC50 [3] was 45.2 µg/mL (≈ 178 µM).

In the case of `Cc1noc2cc3c(nc12)[nH]c1ccc(Br)cc13`, the IC50 [1] is reported as 61.1 µg/mL (≈ 202 µM), the IC50 [2] is reported as 60.4 µg/mL (≈ 200 µM) and the IC50 [3] is reported as 63.2 µg/mL (≈ 209 µM).

With `Cc1noc2cc3c(nc12)[nH]c1ccc(F)cc13` the IC50 [1] was 50.5 µg/mL (≈ 209 µM), the IC50 [2] was 51.3 µg/mL (≈ 213 µM) and the IC50 [3] was 52.4 µg/mL (≈ 217 µM).

Compound `Cc1noc2cc3c(nc12)[nH]c1c(C)cccc13` has an Activity [4] of 4.14 million/mm3, an Activity [5] of 17.65 ×10³ /mm3 and an Activity [6] of 15.25 ×10³ /mm3. It also gave an Activity [7] of 55.1 IU/L, an Activity [8] of 41.06 IU/L and an Activity [9] of 106.3 IU/L. It also gave an Activity [10] of 101.06 IU/L, an Activity [11] of 6.43 mg/dL and an Activity [12] of 4.77 mg/dL. The Activity [13] was “Active”, the IC50 [1] was 23.6 µg/mL (≈ 99.6 µM) and the IC50 [2] was 22.5 µg/mL (≈ 94.9 µM). The IC50 [3] was 20.4 µg/mL (≈ 86.2 µM), the Activity [14] was 9.76 g and the Activity [15] was 5.93 g. It also gave an Activity [16] of 36.36%, an Activity [17] of 75% and an Activity [18] of 2.13 mL. The Activity [19] was 1.4 mL, the Activity [20] was 1.36 mL and the Activity [21] was 0.86 mL. For the same compound, the Activity [22] was 4.74 ×10⁷ /ml, the Activity [23] was 2.97 ×10⁷ /ml and the Activity [24] was 2.31 ×10⁷ /ml. The Activity [25] was 4.2 ×10⁷ /ml, the Activity [26] was 7.09 g% and the Activity [27] was 8.88 g%. The Activity [28] was 3.34 million/mm3.

Compound `Cc1ccc2[nH]c3nc4c(C)noc4cc3c2c1` has an Activity [4] of 3.66 million/mm3, an Activity [5] of 19.19 ×10³ /mm3 and an Activity [6] of 16.58 ×10³ /mm3. It also gave an Activity [7] of 54 IU/L, an Activity [8] of 47.46 IU/L and an Activity [9] of 106.1 IU/L. The Activity [10] was 98.6 IU/L, the Activity [11] was 7.18 mg/dL and the Activity [12] was 6.63 mg/dL. The Activity [13] was “Active”, the IC50 [1] was 19.7 µg/mL (≈ 83.1 µM) and the IC50 [2] was 18.8 µg/mL (≈ 79.3 µM). For the same compound, the IC50 [3] was 16.7 µg/mL (≈ 70.3 µM), the Activity [14] was 11.23 g and the Activity [15] was 8.36 g. The Activity [16] was 11.08%, the Activity [17] was 44.4% and the Activity [18] was 2.43 mL. The Activity [19] was 1.63 mL, the Activity [20] was 1.8 mL and the Activity [21] was 1.33 mL. It also gave an Activity [22] of 6.43 ×10⁷ /ml, an Activity [23] of 5.2 ×10⁷ /ml and an Activity [24] of 1.62 ×10⁷ /ml. The Activity [25] was 2.07 ×10⁷ /ml, the Activity [26] was 6.26 g% and the Activity [27] was 7.3 g%. It also gave an Activity [28] of 2.93 million/mm3.

In the case of `Cc1noc2cc3c(nc12)[nH]c1ccccc13`, the IC50 [1] is reported as 54.5 µg/mL (≈ 244 µM), the IC50 [2] is reported as 53.4 µg/mL (≈ 239 µM) and the IC50 [3] is reported as 49.2 µg/mL (≈ 221 µM).

`Cc1noc2cc3c(nc12)[nH]c1c(Cl)cccc13` showed an IC50 [1] of 55.6 µg/mL (≈ 216 µM), an IC50 [2] of 54.5 µg/mL (≈ 212 µM) and an IC50 [3] of 52.3 µg/mL (≈ 203 µM).

Work on `Cc1noc2cc3c(nc12)[nH]c1ccc(Cl)cc13` yielded an IC50 [1] of 49.3 µg/mL (≈ 191 µM), an IC50 [2] of 49.1 µg/mL (≈ 190 µM) and an IC50 [3] of 36.4 µg/mL (≈ 141 µM).
